Counter-ions that a name gives are not always drawn.

In the experiment the target is T1, human mGluR3 (hmGluR3) (Homo sapiens, UniProt Q14832).
T1 construct: expressed in transfected cells; host or cells: HEK-293 cells, transient co-transfection by electroporation
T1 sequence (Q14832 23-879): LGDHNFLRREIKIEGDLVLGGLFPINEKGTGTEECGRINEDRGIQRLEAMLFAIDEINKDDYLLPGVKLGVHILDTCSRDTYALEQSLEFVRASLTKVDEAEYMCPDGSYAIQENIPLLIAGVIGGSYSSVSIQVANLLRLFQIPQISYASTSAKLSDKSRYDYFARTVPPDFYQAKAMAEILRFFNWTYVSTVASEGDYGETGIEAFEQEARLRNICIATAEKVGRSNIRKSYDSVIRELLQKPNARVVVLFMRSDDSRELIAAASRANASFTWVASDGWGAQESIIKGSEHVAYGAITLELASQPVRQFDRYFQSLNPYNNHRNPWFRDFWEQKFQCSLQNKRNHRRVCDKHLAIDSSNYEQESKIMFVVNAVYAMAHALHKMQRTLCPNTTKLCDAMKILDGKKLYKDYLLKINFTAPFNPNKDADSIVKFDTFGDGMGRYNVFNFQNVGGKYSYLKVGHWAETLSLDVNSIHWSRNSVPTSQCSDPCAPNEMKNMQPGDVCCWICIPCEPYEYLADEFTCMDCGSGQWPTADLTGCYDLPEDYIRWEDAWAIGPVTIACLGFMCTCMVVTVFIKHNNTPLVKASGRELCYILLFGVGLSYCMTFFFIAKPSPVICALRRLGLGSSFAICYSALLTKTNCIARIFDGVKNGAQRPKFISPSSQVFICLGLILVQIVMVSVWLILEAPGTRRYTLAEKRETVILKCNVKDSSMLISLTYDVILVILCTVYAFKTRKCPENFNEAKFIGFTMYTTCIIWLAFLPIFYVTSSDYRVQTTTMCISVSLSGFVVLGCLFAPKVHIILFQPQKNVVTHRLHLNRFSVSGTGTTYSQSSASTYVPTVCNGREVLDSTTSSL
The experiment in a line: Human mGluR3 positive allosteric modulator evaluation using Ca++ functional assay. The format is cell-based. The note with it: hmGluR3 transiently over-expressed in HEK-293 cells; cells stimulated by an EC50 glutamate concentration; intracellular Ca2+ (Fluo4AM, FLIPR Tetra). As for the experimental part: Example 89: Human mGluR3 Positive Allosteric Modulator Evaluation Using Ca++ Functional Assay
Compounds of the present invention were tested successively for their agonist and positive allosteric modulator activities on human mGluR3 (hmGluR3) transiently over-expressed in HEK-293 cells. Compounds exert agonist activity if they are able to activate hmGluR3 by themselves, i.e., in absence of the endogenous agonist glutamate; and they exert positive allosteric modulator activity if they increase the action of the endogenous agonist glutamate.
Cell Culture and Transfection:
HEK-293 cells were maintained in Modified Eagle's Medium supplemented with 10% Foetal Calf Serum, 1% Penicillin/Streptomycin and 1% non-essential amino acids at 37° C./5% CO2. Cells were co-transfected by electroporation with four DNA plasmids encoding hmGluR3, a chimeric G protein allowing redirection of the activation signal toward intracellular calcium pathway, and two glutamate transporters so as to decrease extracellular glutamate levels and avoid receptor desensitization (Brabet I et al., Neuropharmacology 37(8), 1043-51, 1998). After transfection, cells were seeded in 75 cm^2 culture flasks, and cultured for 24 h.
Calcium Assa EC50 determination:
Receptor activity was detected by changes in intracellular calcium measured using the fluorescent Ca^2+ sensitive dye, Fluo4AM (Molecular Probes).
The day of the assay, medium was aspirated and replaced during 3 hrs by freshly prepared buffer B (HBSS 1×, Hepes 20 mM, MgSO4-7H2O 1 mM, Na2CO3 3.3 mM, CaCl2-2H2O 1.3 mM, 0.5% BSA, Probenecid 2.5 mM). Then, cells were loaded at 37° C./5% CO2 for 1.5 hrs with buffer B containing 1 μM Fluo4AM, 0.1 mg/mL Pluronic Acid, 7 μg/mL Glutamate Pyruvate Transaminase and 2 mM sodium pyruvate. Afterwards cells were washed with buffer B. Cells were then detached from the 75 cm^2 culture flasks with Accutase® (5 min incubation at 37° C.), centrifuged (5 min at 840 rpm), resuspended in buffer B and finally seeded at a density of 30,000 cells/well in black-walled clear-bottom 384-well plates. Addition of compounds on cells and intracellular Ca^2+ measurements (excitation 485 nm, emission 525 nm) were performed by the fluorescence microplate reader FLIPR Tetra (Molecular Devices).
Agonist and positive allosteric modulator activities of compounds were consecutively evaluated on the same cells plate. Agonist activity was first tested during 10 min with the addition of compound alone on the cells. Then, the cells were stimulated by an EC50 glutamate concentration and fluorescence was recorded for additional 3 min. EC50 glutamate concentration is the concentration giving 50% of the maximal glutamate response. Agonist and/or positive allosteric modulator activity(ies) were evaluated in comparison to basal signal or signal evoked by EC50 glutamate concentration alone, respectively.
For potency determination, a dose-response test was performed using 20 concentrations of each compound of the invention. Dose-response curves were fitted using the sigmoïdal dose-response (variable slope) analysis in XLfit Scientific Curve Fitting for Excel (IDBS). EC50 of agonist/EC50 of positive allosteric modulator activity(ies) were calculated. Dose-response experiments were all performed in duplicate, two times independently.
In turn, `Cc1ncccc1-c1ccc2c(c1)-c1ccccc1C(=O)N(C)C21CC1` [Example 21, 10-(2-Methyl-pyridin-3-yl)-6-methyl-6,7-dihydro-spiro[dibenzo[c,e]azepine-7,1′-cyclopropan]-5-one, hydrochloride] displayed a half-maximal effective concentration (EC50) of 0.1 to 1 µM.
Under `Cc1ncccc1-c1ccc2c(c1)-c1c[nH]nc1C(=O)N(C)C2` [Example 57, 5-Methyl-9-(2-methyl-pyridin-3-yl)-5,6-dihydro-2H-2,3,5-triaza-benzo[e]azulen-4-one] stands 1 to 10 µM; under `CN1Cc2ccc(-c3ccc(F)nc3)cc2-c2ccc(F)nc2C1=O` [Example 31, 3-Fluoro-10-(6-fluoro-pyridin-3-yl)-6-methyl-6,7-dihydro-4,6-diaza-dibenzo[a, c]cyclohepten-5-one], 1 to 10 µM.
Under `Cc1ncccc1-c1ccc2c(c1)-c1cccnc1C(=O)N(C)C2` [Example 26, 6-Methyl-10-(2-methyl-pyridin-3-yl)-6,7-dihydro-4,6-diaza-dibenzo[a, c]cyclohepten-5-one] stands 0.1 to 1 µM; under `Cc1ncccc1-c1cnc2c(n1)-n1cccc1C(=O)N(C)C2` [Example 7, 5-Methyl-9-(2-methyl-pyridin-3-yl)-5,6-dihydro-5,7,10,10b-tetraaza-benzo[e]azulen-4-one, dihydrochloride], 1 to 10 µM.
For `Cc1ncccc1-c1cnc2c(c1)-n1cccc1C(=O)N(C)C2` [Example 6, 5-Methyl-9-(2-methyl-pyridin-3-yl)-5,6-dihydro-5,7,10b-triaza-benzo[e]azulen-4-one, dihydrochloride], the EC50 is over 10 µM.
The same measure for `Cc1ncccc1-c1ccc2c(c1)-c1ccc(Cl)cc1C(=O)N(C)C21CC1` [Example 22, 3-Chloro-10-(2-methyl-pyridin-3-yl)-6-methyl-6,7-dihydro-spiro[dibenzo[c, e]azepine-7,1′-cyclopropan]-5-one]: 1 to 10 µM; for `COc1ccc2c(n1)C(=O)N(C)Cc1ccc(-c3cccnc3C)cc1-2` [Example 36, 3-Methoxy-6-methyl-10-(2-methyl-pyridin-3-yl)-6,7-dihydro-4,6-diaza-dibenzo[a, c]cyclohepten-5-one]: 0.1 to 1 µM.
For the compound `Cc1ncccc1-c1ccc2c(c1)-n1cccc1C(=O)N(C)C21CCC1` [Example 17, 9-(2-Methyl-pyridin-3-yl)-5-methyl-5,6-dihydro-spiro[benzo[f]pyrrolo[, 2-a][1,4]diazepine-6,1′-cyclobutan]-4-one], the EC50 fell in the range of 0.1 to 1 µM.
`COc1ccc2c(n1)C(=O)N(C)C1(CC1)c1ccc(Cl)cc1-2` [Example 52, 10-chloro-3-methoxy-6-methylspiro[benzo[c]pyrido[3,2-e]azepine-7,1′-cyclopropan]-5(6H)-one] came in with an EC50 of 0.1 to 1 µM.
The compound `Cc1cnc2c(c1)-c1cc(-c3ccc(F)nc3)ccc1CN(C)C2=O` [Example 44, 10-(6-Fluoro-pyridin-3-yl)-2,6-dimethyl-6,7-dihydro-4,6-diaza-dibenzo[a, c]cyclohepten-5-one] displayed an EC50 of 0.1 to 1 µM.
Regarding `Cc1ncccc1-c1cc2c(cn1)C1(CC1)N(C)C(=O)c1cccn1-2` [Example 3, 2′-(2-Methyl-pyridin-3-yl)-6′-methylspiro[cyclopropane-1,5′-pyrido[3,4-f]pyrrolo[1,2-a][1,4]diazepin]-7′(6 ^1H)-one], the EC50 lay in the range of 1 to 10 µM.
`Cc1ncccc1-c1ccc2c(c1)-c1cn(C)nc1C(=O)N(C)C2` [Example 68, 2,5-Dimethyl-9-(2-methyl-pyridin-3-yl)-5,6-dihydro-2H-2,3,5-triaza-benzo[e]azulen-4-one] showed an EC50 of 1 to 10 µM.
The same measure for `Cc1ncccc1-c1ccc2c(c1)-c1ccc(-c3ccnn3C)cc1C(=O)N(C)C21CC1` [Example 23, 3-(2-Methyl-2H-pyrazol-3-yl)-10-(2-methyl-pyridin-3-yl)-6-methyl-6,7-dihydro-spiro[dibenzo[c, e]azepine-7,1′-cyclopropan]-5-one]: 0.1 to 1 µM; for `COc1cnc2c(c1)-c1cc(-c3cccnc3C)ccc1CN(C)C2=O` [Example 48, 2-Methoxy-6-methyl-10-(2-methyl-pyridin-3-yl)-6,7-dihydro-4,6-diaza-dibenzo[a, c]cyclohepten-5-one]: 0.1 to 1 µM.
`Cc1cnc2c(c1)-c1cc(-c3cccnc3C)ccc1CN(C)C2=O` [Example 43, 2,6-Dimethyl-10-(2-methyl-pyridin-3-yl)-6,7-dihydro-4,6-diaza-dibenzo[a, c]cyclohepten-5-one] yielded an EC50 of 1 to 10 µM.
`COCn1cc2c(n1)C(=O)N(C)Cc1ccc(-c3ccc(F)nc3)cc1-2` [Example 66, 2-Methoxymethyl-5-methyl-9-(6-fluoro-pyridin-3-yl)-5,6-dihydro-2H-2,3,5-triaza-benzo[e]azulen-4-one]: the EC50 lay within 0.1 to 1 µM.
`Cc1ncccc1-c1ccc2c(c1)-c1ccsc1C(=O)N(C)C2` [Example 55, 5-Methyl-9-(2-methyl-pyridin-3-yl)-5,6-dihydro-3-thia-5-aza-benzo[e]azulen-4-one] registered an EC50 of 0.1 to 1 µM.
The same measure for `CN1Cc2ccc(-c3ccc(F)cn3)cc2-c2cccnc2C1=O` [Example 28, 10-(5-Fluoro-pyridin-2-yl)-6-methyl-6,7-dihydro-4,6-diaza-dibenzo[a, c]cyclohepten-5-one]: 0.1 to 1 µM.
The same measure for `Cc1ncccc1-c1ccc2c(c1)-c1cc[nH]c1C(=O)N(C)C2` [Example 59, 5-Methyl-9-(2-methyl-pyridin-3-yl)-5,6-dihydro-3H-3,5-diaza-benzo[e]azulen-4-one]: 0.1 to 1 µM; for `CN1Cc2ccc(-c3ccc(F)nc3)cc2-c2cccnc2C1=O` [Example 27, 10-(6-Fluoro-pyridin-3-yl)-6-methyl-6,7-dihydro-4,6-diaza-dibenzo[a, c]cyclohepten-5-one]: 0.1 to 1 µM.
Under `CN1Cc2ccc(-c3ccc(F)nc3)cc2-c2cc(F)cnc2C1=O` [Example 47, 2-Fluoro-10-(6-fluoro-pyridin-3-yl)-6-methyl-6,7-dihydro-4,6-diaza-dibenzo[a, c]cyclohepten-5-one] stands 0.1 to 1 µM.
For `CN1Cc2ccc(-c3ccc(F)cn3)cc2-c2ccc(F)nc2C1=O` [Example 32, 3-Fluoro-10-(5-fluoro-pyridin-2-yl)-6-methyl-6,7-dihydro-4,6-diaza-dibenzo[a, c]cyclohepten-5-one], the EC50 was in the range of 1 to 10 µM.
The same measure for `CN1Cc2ncc(-c3ccc4nccn4c3)cc2-n2cccc2C1=O` [Example 12, 9-Imidazo[1,2-a]pyridin-6-yl-5-methyl-5,6-dihydro-5,7,10b-triaza-benzo[e]azulen-4-one]: over 10 µM; for `COc1ccc2c(n1)C(=O)N(C)Cc1ccc(-c3ccc(F)cn3)cc1-2` [Example 34, 10-(5-Fluoro-pyridin-2-yl)-3-methoxy-6-methyl-6,7-dihydro-4,6-diaza-dibenzo[a, c]cyclohepten-5-one]: 0.1 to 1 µM.
On to `Cc1ccc2c(n1)C(=O)N(C)Cc1ccc(-c3ccc(F)cn3)cc1-2` [Example 40, 10-(5-Fluoro-pyridin-2-yl)-3,6-dimethyl-6,7-dihydro-4,6-diaza-dibenzo[a, c]cyclohepten-5-one], for which the EC50 is 0.1 to 1 µM.
The same measure for `COCn1cc2c(n1)C(=O)N(C)Cc1ccc(-c3cccnc3C)cc1-2` [Example 65, 2-Methoxymethyl-5-methyl-9-(2-methyl-pyridin-3-yl)-5,6-dihydro-2H-2,3,5-triaza-benzo[e]azulen-4-one]: 0.1 to 1 µM.

As usually defined, the EC50 is the midpoint of the concentration-response curve. A high value points to lower potency in that assay.

Source of the values: patent US11472806B2, “Substituted heterocyclic compounds as allosteric modulators of group II metabotropic glutamate receptors” (Domain Therapeutics, priority 2017, dated 2022).
